From article PMC4468608, “A distinct p53 target gene set predicts for response to the selective p53–HDM2 inhibitor NVP-CGM097” (eLife, 2015)

Test system: cell lines from the Cancer Cell Line Encyclopedia (CCLE)
Experiment: High-throughput cell viability assay, CCLE cell line panel (n = 356)
Assay type: cell-based, human
Experimental: Cell lines were partitioned into sensitive and insensitive groups based on compound potency (IC50). […] All other cell lines were obtained from ATCC (American Type Culture Collection), DSMZ (Deutsche Sammlung von Mikroorganismen und Zellkulturen), and HSRRB (Health Science Research Resources Bank) and cultured in RPMI or Dulbecco's modified Eagle's medium plus 10% FBS (Invitrogen, Carlsbad, CA) at 37°C, 5% CO2.

[1] = cell line KMRC-1, kidney, TP53 WT
[2] = cell line KMS-27, haem._and_lymphoid_tissue, TP53 WT
[3] = cell line KMS-28BM, haem._and_lymphoid_tissue, TP53 WT
[4] = cell line KNS-42, central_nervous_system, TP53 MUT
[5] = cell line KYSE-410, oesophagus, TP53 MUT
[6] = cell line KYSE-450, oesophagus, TP53 MUT
[7] = cell line KYSE-510, oesophagus, TP53 MUT
[8] = cell line KYSE-520, oesophagus, TP53 MUT
[9] = cell line L-428, haem._and_lymphoid_tissue, TP53 MUT
[10] = cell line LN-229, central_nervous_system, TP53 WT
[11] = cell line MEL-HO, skin, TP53 WT
[12] = cell line MHH-ES-1, bone, TP53 MUT
[13] = cell line Malme-3M, skin, TP53 WT
[14] = cell line NCI-H460, lung, TP53 WT
[15] = cell line NCI-H647, lung, TP53 MUT
[16] = cell line NCI-H1299, lung, TP53 WT
[17] = cell line NCI-H1341, lung, TP53 WT
[18] = cell line NCI-H1650, lung, TP53 MUT
[19] = cell line NCI-H1693, lung, TP53 MUT
[20] = cell line NCI-H1703, lung, TP53 MUT
[21] = cell line OAW42, ovary, TP53 WT
[22] = cell line OE19, oesophagus, TP53 MUT
[23] = cell line OVCAR-8, ovary, TP53 MUT
[24] = cell line PE/CA-PJ41 (clone D2), upper_aerodigestive_tract, TP53 MUT
[25] = cell line PEER, haem._and_lymphoid_tissue, TP53 MUT
[26] = cell line SCaBER, urinary_tract, TP53 MUT
[27] = cell line SK-HEP-1, liver, TP53 WT
[28] = cell line SK-MEL-5, skin, TP53 WT
[29] = cell line SK-MEL-24, skin, TP53 WT
[30] = cell line SNG-M, endometrium, TP53 WT
[31] = cell line SNU-423, liver, TP53 MUT
[32] = cell line SW403, large_intestine, TP53 MUT
[33] = cell line SW 780, urinary_tract, TP53 WT
[34] = cell line SW 1573, lung, TP53 WT
[35] = cell line TE-9, oesophagus, TP53 MUT
[36] = cell line TE-11, oesophagus, TP53 MUT
[37] = cell line UM-UC-3, urinary_tract, TP53 MUT
[38] = cut-off IC50 4 µM, 356 cell lines

SMILES: COc1cc2c(cc1OC(C)C)[C@H](c1ccc(Cl)cc1)N(c1ccc(N(C)C[C@H]3CC[C@H](N4CCNC(=O)C4)CC3)cc1)C(=O)C2 [NVP-CFC218]
- NVP- CFC218 sensitivity call (cell line JHOS-2, ovary, TP53 MUT): insensitive (Sensitivity call for each compound was applied according to a cut-off of 4 µM for IC50 and -50% for Amax)
- NVP- CFC218 Amax (%) [1]: -42.40%
- NVP- CFC218 sensitivity call [1]: insensitive (Sensitivity call for each compound was applied according to a cut-off of 4 µM for IC50 and -50% for Amax)
- NVP- CFC218 Amax (%) [2]: -1.14%
- NVP- CFC218 sensitivity call [2]: insensitive (Sensitivity call for each compound was applied according to a cut-off of 4 µM for IC50 and -50% for Amax)
- NVP- CFC218 Amax (%) [3]: 3.74%
- NVP- CFC218 sensitivity call [3]: insensitive (Sensitivity call for each compound was applied according to a cut-off of 4 µM for IC50 and -50% for Amax)
- NVP- CFC218 Amax (%) [4]: -8.48%
- NVP- CFC218 sensitivity call [4]: insensitive (Sensitivity call for each compound was applied according to a cut-off of 4 µM for IC50 and -50% for Amax)
- NVP- CFC218 Amax (%) [5]: -24.33%
- NVP- CFC218 sensitivity call [5]: insensitive (Sensitivity call for each compound was applied according to a cut-off of 4 µM for IC50 and -50% for Amax)
- NVP- CFC218 Amax (%) [6]: -1.37%
- NVP- CFC218 sensitivity call [6]: insensitive (Sensitivity call for each compound was applied according to a cut-off of 4 µM for IC50 and -50% for Amax)
- NVP- CFC218 Amax (%) [7]: 3.18%
- NVP- CFC218 sensitivity call [7]: insensitive (Sensitivity call for each compound was applied according to a cut-off of 4 µM for IC50 and -50% for Amax)
- NVP- CFC218 Amax (%) [8]: -5.52%
- NVP- CFC218 sensitivity call [8]: insensitive (Sensitivity call for each compound was applied according to a cut-off of 4 µM for IC50 and -50% for Amax)
- NVP- CFC218 Amax (%) [9]: -26.31%
- NVP- CFC218 sensitivity call [9]: insensitive (Sensitivity call for each compound was applied according to a cut-off of 4 µM for IC50 and -50% for Amax)
- NVP- CFC218 Amax (%) [10]: -42.01%
- NVP- CFC218 sensitivity call [10]: insensitive (Sensitivity call for each compound was applied according to a cut-off of 4 µM for IC50 and -50% for Amax)
- NVP- CFC218 Amax (%) [11]: -40.38%
- NVP- CFC218 sensitivity call [11]: insensitive (Sensitivity call for each compound was applied according to a cut-off of 4 µM for IC50 and -50% for Amax)
- NVP- CFC218 Amax (%) [12]: 1.25%
- NVP- CFC218 sensitivity call [12]: insensitive (Sensitivity call for each compound was applied according to a cut-off of 4 µM for IC50 and -50% for Amax)
- NVP- CFC218 Amax (%) [13]: -39.40%
- NVP- CFC218 sensitivity call [13]: insensitive (Sensitivity call for each compound was applied according to a cut-off of 4 µM for IC50 and -50% for Amax)
- NVP- CFC218 Amax (%) [14]: 0.31%
- NVP- CFC218 sensitivity call [14]: insensitive (Sensitivity call for each compound was applied according to a cut-off of 4 µM for IC50 and -50% for Amax)
- NVP- CFC218 Amax (%) [15]: -29.54%
- NVP- CFC218 sensitivity call [15]: insensitive (Sensitivity call for each compound was applied according to a cut-off of 4 µM for IC50 and -50% for Amax)
- NVP- CFC218 Amax (%) [16]: 0.83%
- NVP- CFC218 sensitivity call [16]: insensitive (Sensitivity call for each compound was applied according to a cut-off of 4 µM for IC50 and -50% for Amax)
- NVP- CFC218 Amax (%) [17]: -36.36%
- NVP- CFC218 sensitivity call [17]: insensitive (Sensitivity call for each compound was applied according to a cut-off of 4 µM for IC50 and -50% for Amax)
- NVP- CFC218 Amax (%) [18]: 2.72%
- NVP- CFC218 sensitivity call [18]: insensitive (Sensitivity call for each compound was applied according to a cut-off of 4 µM for IC50 and -50% for Amax)
- NVP- CFC218 Amax (%) [19]: -4.47%
- NVP- CFC218 sensitivity call [19]: insensitive (Sensitivity call for each compound was applied according to a cut-off of 4 µM for IC50 and -50% for Amax)
- NVP- CFC218 Amax (%) [20]: -40.27%
- NVP- CFC218 sensitivity call [20]: insensitive (Sensitivity call for each compound was applied according to a cut-off of 4 µM for IC50 and -50% for Amax)
- NVP- CFC218 Amax (%) [21]: -7.13%
- NVP- CFC218 sensitivity call [21]: insensitive (Sensitivity call for each compound was applied according to a cut-off of 4 µM for IC50 and -50% for Amax)
- NVP- CFC218 Amax (%) [22]: 14.48%
- NVP- CFC218 sensitivity call [22]: insensitive (Sensitivity call for each compound was applied according to a cut-off of 4 µM for IC50 and -50% for Amax)
- NVP- CFC218 Amax (%) [23]: -30.79%
- NVP- CFC218 sensitivity call [23]: insensitive (Sensitivity call for each compound was applied according to a cut-off of 4 µM for IC50 and -50% for Amax)
- NVP- CFC218 Amax (%) [24]: -0.29%
- NVP- CFC218 sensitivity call [24]: insensitive (Sensitivity call for each compound was applied according to a cut-off of 4 µM for IC50 and -50% for Amax)
- NVP- CFC218 Amax (%) [25]: -46.94%
- NVP- CFC218 sensitivity call [25]: insensitive (Sensitivity call for each compound was applied according to a cut-off of 4 µM for IC50 and -50% for Amax)
- NVP- CFC218 Amax (%) [26]: 0.88%
- NVP- CFC218 sensitivity call [26]: insensitive (Sensitivity call for each compound was applied according to a cut-off of 4 µM for IC50 and -50% for Amax)
- NVP- CFC218 Amax (%) [27]: -41.72%
- NVP- CFC218 sensitivity call [27]: insensitive (Sensitivity call for each compound was applied according to a cut-off of 4 µM for IC50 and -50% for Amax)
- NVP- CFC218 Amax (%) [28]: -47.83%
- NVP- CFC218 sensitivity call [28]: insensitive (Sensitivity call for each compound was applied according to a cut-off of 4 µM for IC50 and -50% for Amax)
- NVP- CFC218 Amax (%) [29]: -47.55%
- NVP- CFC218 sensitivity call [29]: insensitive (Sensitivity call for each compound was applied according to a cut-off of 4 µM for IC50 and -50% for Amax)
- NVP- CFC218 Amax (%) [30]: -25.75%
- NVP- CFC218 sensitivity call [30]: insensitive (Sensitivity call for each compound was applied according to a cut-off of 4 µM for IC50 and -50% for Amax)
- NVP- CFC218 Amax (%) [31]: -5.91%
- NVP- CFC218 sensitivity call [31]: insensitive (Sensitivity call for each compound was applied according to a cut-off of 4 µM for IC50 and -50% for Amax)
- NVP- CFC218 Amax (%) [32]: 51.39%
- NVP- CFC218 sensitivity call [32]: insensitive (Sensitivity call for each compound was applied according to a cut-off of 4 µM for IC50 and -50% for Amax)
- NVP- CFC218 Amax (%) [33]: -38.52%
- NVP- CFC218 sensitivity call [33]: insensitive (Sensitivity call for each compound was applied according to a cut-off of 4 µM for IC50 and -50% for Amax)
- NVP- CFC218 Amax (%) [34]: -48.52%
- NVP- CFC218 sensitivity call [34]: insensitive (Sensitivity call for each compound was applied according to a cut-off of 4 µM for IC50 and -50% for Amax)
- NVP- CFC218 Amax (%) (cell line Sq-1, lung, TP53 WT): 4.40%
- NVP- CFC218 sensitivity call (cell line Sq-1, lung, TP53 WT): insensitive (Sensitivity call for each compound was applied according to a cut-off of 4 µM for IC50 and -50% for Amax)
- NVP- CFC218 Amax (%) [35]: -6.46%
- NVP- CFC218 sensitivity call [35]: insensitive (Sensitivity call for each compound was applied according to a cut-off of 4 µM for IC50 and -50% for Amax)
- NVP- CFC218 Amax (%) [36]: -3.43%
- NVP- CFC218 sensitivity call [36]: insensitive (Sensitivity call for each compound was applied according to a cut-off of 4 µM for IC50 and -50% for Amax)
- NVP- CFC218 Amax (%) [37]: -27.23%
- NVP- CFC218 sensitivity call [37]: insensitive (Sensitivity call for each compound was applied according to a cut-off of 4 µM for IC50 and -50% for Amax)
- NVP- CFC218 Amax (%) (cell line WM-88, skin, TP53 WT): -37.15%
- NVP- CFC218 sensitivity call (cell line WM-88, skin, TP53 WT): insensitive (Sensitivity call for each compound was applied according to a cut-off of 4 µM for IC50 and -50% for Amax)
- Number of insensitive cell lines, p53MUT [38]: 252
- Number of insensitive cell lines, p53WT [38]: 57
- Number of insensitive cell lines, total [38]: 309
- Number of sensitive cell lines, p53MUT [38]: 4
- Number of sensitive cell lines, p53WT [38]: 43
- baseline response rate without prior stratification (estimated from the NVP-CFC218 sensitivity data): 19%
- maximal compound effect level (Amax) (for the sensitive cell lines): ≤ −50%
